Experimental data published in ChEMBL document CHEMBL1140437, “N-substituted cis-4a-(3-hydroxyphenyl)-8a-methyloctahydroisoquinolines are opioid receptor pure antagonists” (J Med Chem, 2005).

Columns and labels:
[1] = biological target: Mu-type opioid receptor (Homo sapiens) (UniProt P35372)
Description: Inhibition of DAMGO stimulated [35S]GTP-gamma-S binding to cloned human mu opioid receptor

[2] = biological target: Opioid receptors; delta & kappa (Homo sapiens) (UniProt P41145+P41143); experiment: Selectivity for cloned human delta opioid receptor over kappa opioid receptor; type: protein assay
Opioid receptors; delta & kappa (Homo sapiens), sequence (P41143 whole entry, looked up): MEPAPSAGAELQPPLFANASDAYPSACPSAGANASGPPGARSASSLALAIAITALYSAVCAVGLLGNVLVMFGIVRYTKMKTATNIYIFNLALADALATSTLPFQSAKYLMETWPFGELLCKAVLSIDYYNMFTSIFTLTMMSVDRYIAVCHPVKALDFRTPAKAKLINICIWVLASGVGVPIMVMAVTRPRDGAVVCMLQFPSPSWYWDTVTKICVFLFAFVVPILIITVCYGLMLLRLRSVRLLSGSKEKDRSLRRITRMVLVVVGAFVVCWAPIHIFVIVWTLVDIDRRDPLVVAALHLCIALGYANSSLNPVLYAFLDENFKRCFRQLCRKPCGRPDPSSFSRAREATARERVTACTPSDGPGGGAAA
Opioid receptors; delta & kappa (Homo sapiens), sequence (P41145 whole entry, looked up): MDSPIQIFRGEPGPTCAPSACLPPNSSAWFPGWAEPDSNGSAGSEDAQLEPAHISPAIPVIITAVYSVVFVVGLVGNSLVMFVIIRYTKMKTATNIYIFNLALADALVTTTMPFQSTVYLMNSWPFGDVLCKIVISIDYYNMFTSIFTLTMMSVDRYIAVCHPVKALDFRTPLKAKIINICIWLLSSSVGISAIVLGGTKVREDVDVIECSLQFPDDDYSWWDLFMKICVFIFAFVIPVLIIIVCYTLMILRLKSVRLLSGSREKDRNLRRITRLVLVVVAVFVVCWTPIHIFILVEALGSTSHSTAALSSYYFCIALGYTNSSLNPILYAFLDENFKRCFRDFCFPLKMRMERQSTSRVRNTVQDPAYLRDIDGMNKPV

[3] = biological target: Opioid receptors; mu & kappa (Homo sapiens) (UniProt P41145+P35372); experiment: Selectivity for cloned human mu opioid receptor over kappa opioid receptor; type: protein assay
Opioid receptors; mu & kappa (Homo sapiens), sequence (P35372 whole entry, looked up): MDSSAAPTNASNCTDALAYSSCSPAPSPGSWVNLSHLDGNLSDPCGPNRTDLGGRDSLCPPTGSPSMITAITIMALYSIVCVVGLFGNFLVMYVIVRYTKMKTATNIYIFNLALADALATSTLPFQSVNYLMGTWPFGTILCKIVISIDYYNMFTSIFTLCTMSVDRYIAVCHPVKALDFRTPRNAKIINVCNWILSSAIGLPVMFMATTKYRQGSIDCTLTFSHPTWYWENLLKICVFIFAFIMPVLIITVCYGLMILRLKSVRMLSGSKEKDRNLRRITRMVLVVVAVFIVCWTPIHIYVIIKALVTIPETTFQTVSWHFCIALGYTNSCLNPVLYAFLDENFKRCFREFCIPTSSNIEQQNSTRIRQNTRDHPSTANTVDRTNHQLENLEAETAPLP
Opioid receptors; mu & kappa (Homo sapiens), sequence (P41145 whole entry, looked up): as the sequence (P41145 whole entry, looked up) above

[4] = biological target: Delta-type opioid receptor (Homo sapiens) (UniProt P41143)
Delta-type opioid receptor (Homo sapiens), sequence (P41143 whole entry): as the sequence (P41143 whole entry, looked up) above
Description: Inhibition of DPDPE stimulated [35S]GTP-gamma-S binding to cloned human delta opioid receptor

[5] = biological target: Kappa-type opioid receptor (Homo sapiens) (UniProt P41145)
Kappa-type opioid receptor (Homo sapiens), sequence (P41145 whole entry): as the sequence (P41145 whole entry, looked up) above
Description: Inhibition of U69,593 stimulated [35S]GTP-gamma-S binding to cloned human kappa opioid receptor

Mu-type opioid receptor (Homo sapiens), sequence (P35372 whole entry): as the sequence (P35372 whole entry, looked up) above

| Compound | Ke [1] [nM] | Ratio Ke [2] | Ratio Ke [3] | Ke [4] [nM] | Ke [5] [nM] |
| --- | --- | --- | --- | --- | --- |
| CN1CC[C@]2(c3cccc(O)c3)CCCC[C@]2(C)C1 | 99.4 | 141 | 29 | 477 | 3.37 |
| C[C@H]1CN(CC[C@H](O)C2CCCCC2)CC[C@@]1(C)c1cccc(O)c1 | 0.1 | – | – | 0.6 | – |
| C[C@]12CC[C@@H](NC(=O)C3(c4ccccc4)CCCC3)C[C@@]1(c1cccc(O)c1)CCN(CCCc1ccccc1)C2 | 1.46 | 3 | 0.8 | 6.46 | 1.93 |
| Oc1ccc2c3c1O[C@H]1c4[nH]c5c(c4C[C@@]4(O)[C@@H](C2)N(CC2CC2)CC[C@]314)C[C@@]1(O)[C@H]2Cc3ccc(O)c4c3[C@@]1(CCN2CC1CC1)[C@H]5O4 | – | 110 | 475 | – | – |
| C[C@]12CCCC[C@@]1(c1cccc(O)c1)CCN(CCCc1ccccc1)C2 (relative stereo) | 0.8 | 12 | 0.8 | 12.4 | 1.03 |
| C[C@]12CCCC[C@@]1(c1cccc(O)c1)CCN(CCc1ccccc1)C2 (relative stereo) | 0.84 | 7 | 0.3 | 18.9 | 2.84 |
| C[C@]12CC[C@@H](NC(=O)CCN3CCCCC3)C[C@@]1(c1cccc(O)c1)CCN(CCCc1ccccc1)C2 (relative stereo) | 41.7 | 46 | 154 | 12.3 | 0.27 |
| C[C@]12CC[C@@H](NC(=O)CCN3CCc4ccccc4C3)C[C@@]1(c1cccc(O)c1)CCN(CCCc1ccccc1)C2 (relative stereo) | 9.82 | 21 | 45 | 4.56 | 0.22 |
| C[C@]12CC[C@@H](NC(=O)c3cc4ccccc4s3)C[C@@]1(c1cccc(O)c1)CCN(CCCc1ccccc1)C2 (relative stereo) | 11.3 | 2 | 25 | 1.01 | 0.46 |
